System: LXRLI1 gene
Experiment: Microarray gene expression profiles of cells treated with LXR-ligand
Assay type: cell-based, human
Conditions: THP-1 cells, primary macrophages, primary hepatocytes; APD 0.001-0.1 μM, 6-24 hours; treated vs. untreated
Source text: To identify human transcripts up or down regulated by LXR-ligand, FlexJet™ microarrays representing either 25,000 Unigene clusters were hybridized to a mixture of cRNAs prepared from samples obtained from untreated versus treated cells of various types. Microarrays, and materials and methods for preparing hybridization samples from purified RNA, hybridizing the microarrays, detecting hybridization signals, and data analysis are described in van't Veer,iet al. (2002 Nature 415:530-536) and Hughes, et al. (2001 Nature Biotechnol. 19:342-7).
Experiments were conducted comparing gene expression profiles of primary hepatocytes, primary human macrophage and THP-1 cells treated with a variety of compounds known to activate the LXR and PPAR nuclear receptor regulated pathways. Additional compound treatments were performed which are known to cause an increase, or decrease in cellular cholesterol. All cells were cultured at 37° C. in a humidified atmosphere consisting of 95% air and 5% carbon dioxide. For each cell sample, mRNA was extracted and purified using Trizol reagent (Invitrogen Corporation, Carlsbad, Calif.) followed by DNAse treatment, as described by Fu, et al. (2001 J. Biol. Chem. 276:38378-87). For the primary hepatocytes, the Trizol purification was followed by a RNasy DNAase (Promega Corp, Madison, Wis.) step per the manufacturer's instructions. […]

SMILES: CC(=O)Oc1ccc2c(c1)[C@@]1(C)CCC[C@](C)(C(=O)OC(=O)[C@@]3(C)CCC[C@]4(C)c5cc(OC(C)=O)ccc5CC[C@@H]34)[C@@H]1CC2 [APD, acetylpodocarpic dimer]
- Transcription of the LXRLI1 gene: induced

From patent US20040023276A1, “LXR-ligand induced genes and proteins” (priority 2002, published 2004)
